Legend:
[1] = system: sera from colon cancer patients; test: Spot assay: reactivity of serologically defined colon cancer antigens with colon cancer patient sera; format: binding, human; conditions: reactive sera/sera tested; includes autologous where applicable; sera 1:200
Procedure: Serum samples from patients with colon cancer were screened using a modification of the plaque assay, termed a spot assay. In this method, 80×120 mm nitrocellulose membranes were precoated with a film of NZY/0.7% Agarose/2.5 mM IPTG and placed on a reservoir layer of NZY/0.7% Agarose in a 86×128 mm Omni Tray (Nalge Nunc International Corp., Naperville, Ill.). Approximately 1.0×10^5 pfU of monoclonal phage encoding individual serologically defined colon cancer antigens, in a volume of 20 μl, were mixed with 20 μl of exponentially growing E. coli XL-1 Blue MRF and spotted (0.7-μl aliquots) on the precoated nitrocellulose membranes. Membranes were incubated for 15 hours at 37° C. A total of 75 different serologically defined colon cancer antigens were spotted in duplicate per nitrocellulose membrane. The agarose film was then removed from the membrane and the filters were processed for reactivity with individual serum samples (1:200 dilution), as described in Scanlan, et al., Int. J. Cancer 76:652-658 (1998) and Scanlan, et al., Int. J. Cancer 83:456-64, (1999).

CD4+ T cells = test: ELISPOT of peptide-stimulated CD4+ T cells from patients; format: cell-based, human; conditions: autologous targets presenting peptide
Procedure: Given the correlation between humoral and cellular immunity observed with CT antigens such as NY-ESO-1 (Jager et al. J Exp Med. 1998 Jan. 19; 187(2):265-70) and SSX2 (Ayyoub et al. J Immunol. 2002 Feb. 15; 168(4):1717-22, Tureci et al. Cancer Res. 1996 Oct. 15; 56(20):4766-72.), these two patients were analyzed to look for the presence of T cell responses. Nine long peptides (30AA) were synthesized from the sequence of NY-CO-58 (SEQ ID NO:20) on the basis of the presence of anchor motifs for various class I molecules. Five prediction algorithms were used to map potential these potential anchor motifs which correspond to potential epitopes, resulting in the selection of the following polypeptides: 3-32 (SEQ ID NO:31), 51-80 (SEQ ID NO:35), 151-180 (SEQ ID NO:36), 271-300 (SEQ ID NO:37), 375-404 (SEQ ID NO:38), 403-432 (SEQ ID NO:33), 510-539 (SEQ ID NO:39), 633-662 (SEQ ID NO:40), and 692-721 (SEQ ID NO:34).
CD8^+ and CD4^+ T cells were then purified from peripheral blood lymphocytes (PBLs) from the two patients and were stimulated with these peptides either individually or in pools of 2-3 peptides (Gnjatic et al. J Immunol. 2003 Feb. 1; 170(3):1191-6). The stimulated CD8^+ T cells were then tested for recognition of the same stimulator peptide(s), either individually or pools in standard ELISPOT assays (Jager Proc Natl Acad Sci USA. 2000 Apr. 25; 97(9):4760-5, Gnjatic et al. Proc Natl Acad Sci USA. 2000 Sep. 26; 97(20):10917-22).
In these same patients CD4^+ T cell responses were investigated. CD4^+ T cells were stimulated with the peptides individually or in pools of 2-3 peptides as done with CD8^+ T cells. The stimulated peptides were tested in ELISPOT assays using autologous targets presenting the stimulator peptide(s). […] Recognition of control autologous targets, either unpulsed cells or cells presenting irrelevant peptide.
An additional sample of PBLs was obtained from patient UKE-16. The patient remained positive for serum NY-CO-58 specific antibody. Again, CD4^+ T cells were stimulated with peptides derived from the NY-CO-58 sequence. This time additional “minimal” 12-mer epitopes selected from within the 30-mer polypeptides using the ProPred prediction algorithm (Singh, H. and Raghava, G. P. S. (2001) ProPred: Prediction of HLA-DR binding sites. Bioinformatics, 17(12), 1236-37, Propred server available online from Drs Raghava and Singh, Bioinformatics Center, Institute of Microbial Technology, Chandigarh, India). The 12-mer peptides corresponded to amino acid 15-26 (SEQ ID NO:32) and 699-710 (SEQ ID NO:41) of NY-CO-58 (SEQ ID NO:20). Analysis of the responses was carried out by ELISPOT assay as before. Peptide 15-26 was recognized by CD4^+ T cells from patient UKE-16 and represents a minimal epitope within amino acid 3-32 (SEQ ID NO:31). This also confirmed that the T cell reactivity was specific to the peptides and not due to an irrelevant contaminant, which would be unlikely to be present within two separate batches of synthetic peptides.

splenocytes = format: cell-based, HHD mice
[2] = system: peripheral blood lymphocytes; format: cell-based, HHD mice

Substance | CD4+ T cell response, ELISPOT (CD4+ T cells; patient UKE-1) | CD4+ T cell response, ELISPOT (CD4+ T cells; patient UKE-16) | ELISPOT response after in vitro restimulation (splenocytes) | ex vivo ELISPOT response from PBL [2] | other results
CO-95 (KIAA1416): serologically defined colon cancer antigen, protein SEQ ID NO:16 | – | – | – | – | Reactivity of individual antigens [1]: 4/75
EIYNGKLFDLLNKKAKLRVLEDGKQQVQVV (listed as Homo sapiens) [peptide 403-432, fragment of NY-CO-58, residues 403-432] | responded | – | – | – | –
KHFSALRDVIKALRLAMQLEEQASRQISSK (listed as Homo sapiens) [692-721, fragment of NY-CO-58, residues 692-721] | reactive | reacted very clearly | – | – | –
KLGLEVYVT (listed as Homo sapiens) | – | – | responses were detected | not seen | –
LAIKIQRSNGLI (listed as Homo sapiens) [peptide 15-26, minimal 12-mer of NY-CO-58, residues 15-26] | – | recognized | – | – | –
LQARLFPGL (listed as Homo sapiens) | – | – | responses were detected | not seen | –
MDSSLQARLFPGLAIKIQRSNGLIHSANVR (listed as Homo sapiens) [3-32] | reactive | reacted very clearly | – | – | –
NLEKSCVSV (listed as Homo sapiens) | – | – | responses were detected | not seen | –
SLLALKECI (listed as Homo sapiens) | – | – | confirmed | showed a response | –

Source: US7803382B2, “Method for inducing immune response to NY-CO-58” (Ludwig Institute for Cancer Research Ltd., priority 2001, dated 2010)
